In US5202315A, “Cephalosporin compounds” (Lucky, Ltd., priority 1989, dated 1993):
Values after ≈ are worked out from the molar mass of the structure shown. Where two headings read alike, the source gives them in different places.

Key:
[1] = tested on: Streptococcus faecalis ATCC 29212; assay: Antibacterial activity, MIC; type: cell-based; conditions: Enterococcus faecalis, ATCC29212; ATCC 29212; agar two-fold dilution, 37° C., 20 hours; read-out: MIC
Procedure: (§1) Also, the in vitro antibacterial activity was determined by the by a two-fold dilution method as described below:
(§2) That is, the two-fold serial dilutions of the compound were made dispersed in Muller-Hinton agar medium. 2 μl of standard test strain which had the 10^7 CFU per ml was inoculated on the medium, and was incubated at 37° C. for 20 hours.

[2] = tested on: Shigella sonnei ATCC 11060; assay: Antibacterial activity, MIC; type: cell-based
Procedure: as §1, §2

[3] = tested on: Citrobacter freundii ATCC 8090; assay: Antibacterial activity, MIC; type: cell-based; conditions: ATCC8090, ATCC 8090, agar two-fold dilution, 37° C., 20 hours, read-out: MIC
Procedure: as §1, §2

[4] = tested on: Escherichia coli ATCC 25922; assay: Antibacterial activity, MIC; type: cell-based; conditions: ATCC25922, agar two-fold dilution, 37° C., 20 hours
Procedure: as §1, §2

[5] = tested on: Enterobacter cloacae ATCC 27508; assay: Antibacterial activity, MIC; type: cell-based; conditions: ATCC27508, ATCC 27508, agar two-fold dilution, 37° C., 20 hours, read-out: MIC
Procedure: as §1, §2

[6] = tested on: Proteus mirabilis ATCC 25933; assay: Antibacterial activity, MIC; type: cell-based; conditions: ATCC25933, ATCC 25933, agar two-fold dilution, 37° C., 20 hours, read-out: MIC
Procedure: as §1, §2

[7] = tested on: Escherichia coli ATCC 10536; assay: Antibacterial activity, MIC; type: cell-based; conditions: ATCC10536, agar two-fold dilution, 37° C., 20 hours
Procedure: as §1, §2

[8] = tested on: Staphylococcus aureus ATCC 6538p; assay: Antibacterial activity, MIC; type: cell-based; conditions: ATCC6538P, ATCC 6538p, agar two-fold dilution, 37° C., 20 hours, read-out: MIC
Procedure: as §1, §2

[9] = tested on: Providencia rettgeri ATCC 9250; assay: Antibacterial activity, MIC; type: cell-based; conditions: ATCC9250, agar two-fold dilution, 37° C., 20 hours
Procedure: as §1, §2

[10] = tested on: Acinetobacter calcoaceticus ATCC 15473; assay: Antibacterial activity, MIC; type: cell-based; conditions: ATCC15473, ATCC 15473, agar two-fold dilution, 37° C., 20 hours, read-out: MIC
Procedure: as §1, §2

[11] = tested on: Shigella flexneri ATCC 11836; assay: Antibacterial activity, MIC; type: cell-based; conditions: ATCC11836, agar two-fold dilution, 37° C., 20 hours
Procedure: as §1, §2

[12] = tested on: Staphylococcus aureus ATCC 10537; assay: Antibacterial activity, MIC; type: cell-based; conditions: ATCC10537, ATCC 10537, agar two-fold dilution, 37° C., 20 hours, read-out: MIC
Procedure: as §1, §2

[13] = tested on: Morganella morganii ATCC 8076h; assay: Antibacterial activity, MIC; type: cell-based; conditions: ATCC8076H, agar two-fold dilution, 37° C., 20 hours
Procedure: as §1, §2

[14] = tested on: Enterobacter aerogenes ATCC 29751; assay: Antibacterial activity, MIC; type: cell-based; conditions: Klebsiella aerogenes, ATCC29751; ATCC 29751; agar two-fold dilution, 37° C., 20 hours; read-out: MIC
Procedure: as §1, §2

[15] = tested on: Pseudomonas aeruginosa ATCC 25619; assay: Antibacterial activity, MIC; type: cell-based; conditions: ATCC25619, ATCC 25619, agar two-fold dilution, 37° C., 20 hours, read-out: MIC
Procedure: as §1, §2

[16] = tested on: Klebsiella pneumoniae ATCC 10031; assay: Antibacterial activity, MIC; type: cell-based; conditions: ATCC10031, ATCC 10031, agar two-fold dilution, 37° C., 20 hours, read-out: MIC
Procedure: as §1, §2

[17] = tested on: Pseudomonas aeruginosa ATCC 10145; assay: Antibacterial activity, MIC; type: cell-based; conditions: ATCC10145, ATCC 10145, agar two-fold dilution, 37° C., 20 hours, read-out: MIC
Procedure: as §1, §2

[18] = tested on: Bacillus cereus ATCC 11778; assay: Antibacterial activity, MIC; type: cell-based; conditions: ATCC11778, ATCC 11778, agar two-fold dilution, 37° C., 20 hours, read-out: MIC
Procedure: as §1, §2

[19] = tested on: Proteus vulgaris ATCC 6059; assay: Antibacterial activity, MIC; type: cell-based; conditions: ATCC6059, ATCC 6059, agar two-fold dilution, 37° C., 20 hours, read-out: MIC
Procedure: as §1, §2

[20] = tested on: Bacillus megaterium ATCC 9885; assay: Antibacterial activity, MIC; type: cell-based; conditions: Priestia megaterium, ATCC9885; ATCC 9885; agar two-fold dilution, 37° C., 20 hours; read-out: MIC
Procedure: as §1, §2

[21] = tested on: Serratia marcescens ATCC 27117; assay: Antibacterial activity, MIC; type: cell-based; conditions: ATCC27117, ATCC 27117, agar two-fold dilution, 37° C., 20 hours, read-out: MIC
Procedure: as §1, §2

[22] = tested on: Staphylococcus epidermidis ATCC 12228; assay: Antibacterial activity, MIC; type: cell-based; conditions: ATCC12228, ATCC 12228, agar two-fold dilution, 37° C., 20 hours, read-out: MIC
Procedure: as §1, §2

[23] = tested on: Pseudomonas aeruginosa ATCC 27853; assay: Antibacterial activity, MIC; type: cell-based; conditions: ATCC27853, ATCC 27853, agar two-fold dilution, 37° C., 20 hours, read-out: MIC
Procedure: as §1, §2

[24] = tested on: Salmonella typhimurium ATCC 14028; assay: Antibacterial activity, MIC; type: cell-based; conditions: Salmonella enterica; ATCC 14028; agar two-fold dilution, 37° C., 20 hours; read-out: MIC
Procedure: as §1, §2

[25] = tested on: Micrococcus luteus ATCC 9341; assay: Antibacterial activity, MIC; type: cell-based; conditions: ATCC9341, ATCC 9341, agar two-fold dilution, 37° C., 20 hours, read-out: MIC
Procedure: as §1, §2

[26] = In-vivo absorbency (plasma concentrations & pharmacokinetic parameters); set-up: species or system SD rat (male); conditions: plasma, SD male rat, iv 20 mg/kg; for half-life: rat, iv, 20 mg/kg
From the text: The blood samples from the femoral vein of the rats were taken every hour after administration, and analyzed by bio-assay(agar well method).
Tested animal: SD male Rat (220~340 g)

[27] = as above; set-up: species or system SD rat (male); conditions: plasma, SD male rat, iv 20 mg/kg, read-out: Plasma Conc.
[28] = ATCC11060, ATCC 11060, agar two-fold dilution, 37° C., 20 hours, read-out: MIC

Row | Structure (SMILES) | MIC [1] | MIC [3] | MIC [4] | MIC [5] | MIC [6] | MIC [7] | MIC [8] | MIC [9] | MIC [10] | MIC [11] | MIC [12] | MIC [13] | MIC [14] | MIC [15] | MIC [16] | MIC [17] | MIC [18] | MIC [19] | MIC [21] | MIC [22] | further results
1 | CCO/N=C(\C(=O)NC1C(=O)N2C(C(=O)[O-])=C(CSc3nc(N)cc(N)[n+]3CC)CSC12)c1csc(N)n1 (stereo not shown) [Compound I-12] | 32 µg/mL (≈ 55.2 µM) | 0.063 µg/mL (≈ 0.109 µM) | 0.13 µg/mL (≈ 0.224 µM) | ≤ 0.008 µg/mL | 0.13 µg/mL (≈ 0.224 µM) | 0.063 µg/mL (≈ 0.109 µM) | 0.25 µg/mL (≈ 0.431 µM) | ≤ 0.008 µg/mL | 4 µg/mL (≈ 6.9 µM) | 0.031 µg/mL (≈ 0.0535 µM) | 0.25 µg/mL (≈ 0.431 µM) | ≤ 0.008 µg/mL | 0.5 µg/mL (≈ 0.863 µM) | 1 µg/mL (≈ 1.73 µM) | ≤ 0.008 µg/mL | 8 µg/mL (≈ 13.8 µM) | 16 µg/mL (≈ 27.6 µM) | 0.25 µg/mL (≈ 0.431 µM) | 0.13 µg/mL (≈ 0.224 µM) | 0.063 µg/mL (≈ 0.109 µM) | MIC ([2]; ATCC11060, 20 h): 0.13 µg/mL (≈ 0.224 µM); MIC [20]: 0.063 µg/mL (≈ 0.109 µM); MIC [23]: 2 µg/mL (≈ 3.45 µM); MIC [24]: 0.5 µg/mL (≈ 0.863 µM); MIC [25]: ≤ 0.008 µg/mL
2 | CC(C)(O/N=C(\C(=O)NC1C(=O)N2C(C(=O)[O-])=C(CSc3nc(N)cc(N)[n+]3N)CSC12)c1nsc(N)n1)C(=O)O (stereo not shown) [Compound I-13] | > 128 µg/mL | 0.13 µg/mL (≈ 0.208 µM) | 0.13 µg/mL (≈ 0.208 µM) | 0.031 µg/mL (≈ 0.0495 µM) | 0.13 µg/mL (≈ 0.208 µM) | 0.13 µg/mL (≈ 0.208 µM) | 16 µg/mL (≈ 25.6 µM) | ≤ 0.008 µg/mL | 4 µg/mL (≈ 6.39 µM) | 0.063 µg/mL (≈ 0.101 µM) | 8 µg/mL (≈ 12.8 µM) | 0.016 µg/mL (≈ 0.0256 µM) | 1 µg/mL (≈ 1.6 µM) | 2 µg/mL (≈ 3.2 µM) | 0.063 µg/mL (≈ 0.101 µM) | 2 µg/mL (≈ 3.2 µM) | > 128 µg/mL | 0.13 µg/mL (≈ 0.208 µM) | 0.25 µg/mL (≈ 0.4 µM) | 4 µg/mL (≈ 6.39 µM) | MIC [20]: 1 µg/mL (≈ 1.6 µM); MIC [23]: 1 µg/mL (≈ 1.6 µM); MIC [24]: 0.5 µg/mL (≈ 0.799 µM); MIC [25]: 1 µg/mL (≈ 1.6 µM)
3 | CO/N=C(\C(=O)NC1C(=O)N2C(C(=O)[O-])=C(CSc3nc(N)cc(N)[n+]3N)CSC12)c1csc(N)n1 (stereo not shown) [Compound I-19] | 32 µg/mL (≈ 57.9 µM) | 0.13 µg/mL (≈ 0.235 µM) | 0.13 µg/mL (≈ 0.235 µM) | 0.016 µg/mL (≈ 0.029 µM) | 0.13 µg/mL (≈ 0.235 µM) | 0.13 µg/mL (≈ 0.235 µM) | 0.25 µg/mL (≈ 0.452 µM) | ≤ 0.008 µg/mL | 4 µg/mL (≈ 7.24 µM) | 0.016 µg/mL (≈ 0.029 µM) | 0.5 µg/mL (≈ 0.905 µM) | 0.008 µg/mL (≈ 0.0145 µM) | 0.25 µg/mL (≈ 0.452 µM) | 0.5 µg/mL (≈ 0.905 µM) | ≤ 0.008 µg/mL | 2 µg/mL (≈ 3.62 µM) | 8 µg/mL (≈ 14.5 µM) | 0.016 µg/mL (≈ 0.029 µM) | 0.25 µg/mL (≈ 0.452 µM) | 0.063 µg/mL (≈ 0.114 µM) | MIC [2, 28]: 0.063 µg/mL (≈ 0.114 µM); MIC [20]: 0.13 µg/mL (≈ 0.235 µM); MIC [23]: 1 µg/mL (≈ 1.81 µM); MIC [24]: 0.25 µg/mL (≈ 0.452 µM); MIC [25]: 0.016 µg/mL (≈ 0.029 µM)
4 | Cc1c(N)nc(SCC2=C(C(=O)[O-])N3C(=O)C(NC(=O)/C(=N\OC(C)(C)C(=O)O)c4csc(N)n4)C3SC2)[n+](N)c1N (stereo not shown) [Compound I-34] | > 128 µg/mL | 0.063 µg/mL (≈ 0.0986 µM) | 0.13 µg/mL (≈ 0.204 µM) | 0.016 µg/mL (≈ 0.0251 µM) | 0.031 µg/mL (≈ 0.0485 µM) | 0.063 µg/mL (≈ 0.0986 µM) | 4 µg/mL (≈ 6.26 µM) | ≤ 0.008 µg/mL | 4 µg/mL (≈ 6.26 µM) | 0.031 µg/mL (≈ 0.0485 µM) | 2 µg/mL (≈ 3.13 µM) | ≤ 0.008 µg/mL | 1 µg/mL (≈ 1.57 µM) | 2 µg/mL (≈ 3.13 µM) | 0.063 µg/mL (≈ 0.0986 µM) | 2 µg/mL (≈ 3.13 µM) | 128 µg/mL (≈ 200 µM) | 0.063 µg/mL (≈ 0.0986 µM) | 0.13 µg/mL (≈ 0.204 µM) | 2 µg/mL (≈ 3.13 µM) | concentration at 1 h ([26]; 60 min, read-out: Plasma Conc.): 7800 ng/mL; concentration at 2 h ([26]; 120 min, read-out: Plasma Conc.): 1200 ng/mL; AUC ([26]; two compartment model): 37200 ng·h/mL; half-life ([26]; two compartment model, read-out: T1/2 (α)): 1 min; half-life ([26]; two compartment model, read-out: T1/2 (β)): 21 min; MIC [2, 28]: 0.063 µg/mL (≈ 0.0986 µM); MIC [23]: 2 µg/mL (≈ 3.13 µM); MIC [24]: 0.13 µg/mL (≈ 0.204 µM); MIC [25]: 0.5 µg/mL (≈ 0.783 µM); concentration at 0.5 min ([27]; 0.5 min): 181000 ng/mL; concentration at 2.5 min ([27]; 2.5 min): 89000 ng/mL; concentration at 5 min ([27]; 5 min): 68000 ng/mL; concentration at 10 min ([27]; 10 min): 47000 ng/mL; concentration at 20 min ([27]; 20 min): 31000 ng/mL; concentration at 40 min ([27]; 40 min): 15000 ng/mL
